# Assay results reported in US20170251943A1, “Systems Level State Characteristics in Experimental Treatment of Disease” (priority 2014, published 2017).
# Tests used:
# [1] = tested on: medial forebrain bundle 6-OHDA hemilesioned rat; assay: Levodopa-induced dyskinesia, dyskinetic symptoms in 6-OHDA hemilesioned rat; assay type: in vivo
# Excerpt: To characterize the CNS effects of experimental treatment of symptoms in levodopa-induced dyskinesia, the most widely used model of this disease condition was employed—the medial forebrain bundle 6-OHDA hemilesioned rat. In this model, parkinsonism is induced by the injection of this neurotoxin resulting in extensive neurotoxic lesions of midbrain dopaminergic neurons projecting to the forebrain. By injecting the […] in only one of the hemispheres the other hemisphere can be used as an internal control in different recordings conditions/behavioral situations. Following a period of levodopa treatment, animals developed dyskinetic symptoms affecting the side of the body contralateral to the brain lesion (Halje et al., 2012). Thus, neuronal recordings obtained in the parkinsonian and dyskinetic condition can be compared to a healthy control condition. Rats were chronically implanted with 128 recording electrodes according to the methods described above and CNS activity patterns were recorded in a number of experiments performed in four adult female Sprague-Dawley rats.
# [2] = tested on: medial forebrain bundle 6-OHDA hemilesioned rat; assay: CNS state characterization (LFP PSDs / spike trains, cortico-basal ganglia-thalamic loop) in dyskinetic 6-OHDA hemilesioned rat; assay type: in vivo
# Procedure: Power spectral densities (PSDs) are calculated with a multitaper method (Pesaran, 2008) (50%-overlapping 8-s windows, 7 tapers) implemented in Chronux 2.0 (Mitra and Bokil, 2007). To stabilize the variance and to emphasize narrowband oscillations over wideband signals, PSDs are normalized to the pink noise background according to Halje et al. (Halje et al., 2012), but with one important adaptation: Due to the complexity of the data it is not practical to manually pick frequency bands with pure pink noise in all structures and conditions to get unbiased estimates of the noise background. Instead the whole frequency axis is divided into 20 logarithmically spaced bands (1-1.3, 1.3-1.7, . . . , 151.3-200 Hz) and the median power of each band is used for the fitting of the pink noise power curve S(f)=A/f^B. The pink noise normalization allows us to describe deviations from the pink noise floor in terms of the unit dBpink. As a final step, an average spectrogram is calculated for each structure, based on the spectrograms for each individual local bipolar LFP time series.
# Offline spike sorting can be performed with commercially available software to obtain spike trains of individual neurons, for example Offline Sorter by Plexon Inc. Standard spike train statistics like average firing rate and coefficient of variation is then calculated and used as features in the state-space analysis.
# elements, where each element is a measured variable. Typically, there are a couple of thousand variables in such a state description and it is necessary to reduce the dimensionality before it is practical to make further state characterizations. […]
# To characterize the CNS effects of experimental treatment of symptoms in levodopa-induced dyskinesia, the most widely used model of this disease condition was employed—the medial forebrain bundle 6-OHDA hemilesioned rat. […] Rats were chronically implanted with 128 recording electrodes according to the methods described above and CNS activity patterns were recorded in a number of experiments performed in four adult female Sprague-Dawley rats. […]
# rats [3] = assay: Behavioral changes in rats treated with psychosis-inducing drugs; assay type: in vivo, rat; conditions: 10-50 min after injection
# rats [4] = assay: CNS state characterization (LFP PSDs, diencephalic/telencephalic structures) in pharmacological psychosis-like states; assay type: in vivo, rat; conditions: Hippocampus, Nucleus Accumbens, Thalamus; pink noise normalized, FIG. 6
# Procedure: Power spectral densities (PSDs) are calculated with a multitaper method (Pesaran, 2008) (50%-overlapping 8-s windows, 7 tapers) implemented in Chronux 2.0 (Mitra and Bokil, 2007). To stabilize the variance and to emphasize narrowband oscillations over wideband signals, PSDs are normalized to the pink noise background according to Halje et al. (Halje et al., 2012), but with one important adaptation: Due to the complexity of the data it is not practical to manually pick frequency bands with pure pink noise in all structures and conditions to get unbiased estimates of the noise background. […] As a final step, an average spectrogram is calculated for each structure, based on the spectrograms for each individual local bipolar LFP time series. […]
# For this purpose, a number of diencephalic and telencephalic structures were recorded in parallel including: hippocampus [corresponding to anterior hippocampus in humans], nucleus accumbens [core and shell], medial prefrontal cortex and anterior gyrus cinguli (adapted to rodent anatomy), the mediodorsal nucleus and the medial geniculate nucleus in thalamus.
compound,measurement,setting,value
COc1ccccc1N1CCN(CCN(C(=O)C2CCCCC2)c2ccccn2)CC1 [WAY100635],reversal of the anti-dyskinetic effect of the 5-HT1A agonist 8-OH-DPAT,[1]; given after 8-OH-DPAT in dyskinetic rat,fully reversed
same,reversal of 8-OH-DPAT effect on CNS state (LFP power spectral densities),"[2]; dyskinetic+8-OH-DPAT rat, LFP PSDs in eight structures, FIG. 4",reversed the effect of 8-OH-DPAT inducing a state that closely resembles the initial dyskinetic state
same,reversal of 8-OH-DPAT effect on CNS state (relative firing rates of neurons),"[2]; dyskinetic+8-OH-DPAT rat, firing rates in eight structures of lesioned hemisphere, FIG. 5",reversed the effect of 8-OH-DPAT to a state closely resembling the initial dyskinetic state
CNC1(c2ccccc2Cl)CCCCC1=O (stereo not shown) [Ketamine],behavioral change (locomotion),rats [3],increased locomotion
"CCN(CC)C(=O)[C@@H]1C=C2c3cccc4[nH]cc(c34)C[C@H]2N(C)C1 [LSD, lysergic acid diethylamide]",LFP power spectra of the drug-induced psychosis-like state,rats [4],high-frequency narrow band oscillation in n. Accumbens
CCCN(CCC)C1CCc2cccc(O)c2C1 (stereo not shown) [8-OH-DPAT],effect on dyskinetic symptoms,"[1]; 1 mg/kg and 0.4 mg/kg i.p. at the time point of peak dyskinesia, two experiments",effectively suppress dyskinetic symptoms
same,shift of CNS state in state space,"[2]; dyskinetic rat, state spaces from spike trains and LFP PSDs, FIGS. 4 and 5",primarily shifted the dyskinetic state back towards the parkinsonian state
